According to patent US20260108476A1, “2,4 DNP and Prodrugs Thereof for Treatment of Cancer” (priority 2021, published 2026):
Entries after “also recorded” stand apart in the source; their conditions may differ.

Assays:
MCF10A/NLS-DAO cells = assay: Western blot of EMT markers in MCF10A/NLS-DAO cells; format: cell-based; settings: D-Ala 10 nM, activation of nuclear ROS
Protocol: FIG. 1B is a graph of experimental data showing the quantification of the relative levels of nuclear ROS shown as the ratio of fluorescence between the oxidized and reduced forms. FIG. 1C is a Western blot analysis showing increased EMT markers after activation of nuclear ROS with D-Ala (10 nM). FIG. 1D is a graph of experimental data showing proliferation curves comparing naïve (MCF10A) and D-Ala (10 nM) exposed MCF10A/NLS-DAO cells. Results are averages of at least 5 biologic replicates with (*) representing p<0.05.
Nuclear ROS are sufficient and required to activate EMT and metastasis of breast cancer cells. ROS levels were measured in the nuclei of different breast cancer cell lines displaying vastly different tumorigenicity and metastatic potential using novel NLS-Orp1roGFP2 biosensors. […] Also, transformation of MCF10A by v-Src promoted a marked increase in nuclear ROS levels (FIGS. 1A & B). […] To directly link nuclear ROS with aggressive cancer behavior, a nucleus-targeted system (NLS-D-amino acid oxidase, NLS-DAO) was engineered that allows to generate ROS21 directly in the nucleus and expressed it into MCF10A cells to recreate, using a non-transformed cell background, this distinctive feature of metastatic breast cancer cell lines. […]

BT20 NLS Orp roGFP cells = assay: nuclear ROS by NLS-Orp1roGFP2 biosensor in BT20 cells; format: cell-based, human; settings: BT20, varying concentrations of DNP, 24 hours
Protocol: (§1) FIGS. 3A-3C show how DNP suppresses nuclear ROS in basal BT breast cancer cell lines.
(§2) Nuclear ROS are sufficient and required to activate EMT and metastasis of breast cancer cells. ROS levels were measured in the nuclei of different breast cancer cell lines displaying vastly different tumorigenicity and metastatic potential using novel NLS-Orp1roGFP2 biosensors. […] Also, transformation of MCF10A by v-Src promoted a marked increase in nuclear ROS levels (FIGS. 1A & B). […] To directly link nuclear ROS with aggressive cancer behavior, a nucleus-targeted system (NLS-D-amino acid oxidase, NLS-DAO) was engineered that allows to generate ROS21 directly in the nucleus and expressed it into MCF10A cells to recreate, using a non-transformed cell background, this distinctive feature of metastatic breast cancer cell lines. […] Next, it was tested whether nuclear ROS contributed to treatment failure by promoting resistance to first line chemotherapeutic drugs, i.e. doxorubicin. It was also tested whether removing suppressing ROS specifically in the nucleus restored sensitivity to doxorubicin. The strategy of removing ROS from the nucleus is novel, targets a feature that seems unique to cancer cells and preserves redox signaling that happen in large part in the cytosol22. […]

[1] = test system: BT474 NLS Orp roGFP cells; assay: nuclear ROS by NLS-Orp1roGFP2 biosensor in BT474 cells; format: cell-based, human; settings: BT474, varying concentrations of DNP, 24 hours
Protocol: as §1, §2

28-day toxicity studies = format: in vivo; settings: low doses
From the text: (§3) In one embodiment, the compositions and methods of the disclosure relate to targeting oxidative stress upstream at the mitochondria that may be causative for many disorders, including, but not limited to, cancer, pain, and/or pain related conditions. There have been a variety of attempts to lower cellular stress, such as administering anti-oxidants, however these drugs have limited tissue penetration into the brain and lower ROSs after they have been formed. […] While not being bound to theory, it is postulated that DNP modulates the mitochondrial membrane potential having a significant impact at preventing ROS formation in isolated mitochondria and in the treated wildtype mice. DNP treatment 3-hours post-ischemia reduced cerebral infarct volume 40% by protecting the penumbra or “threaten tissue” and could provide similar benefits after a blast to protect inner hair cells from eminent cell death. DNP comes with the benefits of known risks as it was used 80-years ago for weight loss at high doses (˜300 mg) in over 100,000 people, however shown recently in models of neurodegeneration at very low hermetic doses to improve cognition and learning. The pharmacology, which is pleiotropic, appears to provide broad neuroprotection by lowering ROS/mTOR and increasing protective factors such as CAMP, CREB, and BDNF, could be useful for treating hearing loss.

ion channels = assay: inhibition of ion channels
From the text: as §3

CYP = assay: inhibition of CYP; format: in vitro ADME
From the text: as §3

Caco-2 = assay: Caco-2; format: in vitro ADME
From the text: as §3

[2] = pharmacokinetics of DNP in rats; format: in vivo
[3] = at the doses proposed
Protocol: The hypothesis that mitigating mitochondrial dysfunction via scavenging ROS prevents chromatin changes that promote treatment resistance is tested using DNP, a compound in development with uncoupling activity already in Phase I trials for Huntington's Disease. DNP works largely by reducing the mitochondrial electrochemical potential reducing the output of ROS.

[4] = treatment 3-hours post-ischemia; cited from earlier work
wildtype mice = settings: chronic, extraordinarily low dose; cited from earlier work
[5] = test system: models of neurodegeneration; settings: very low hermetic doses; cited from earlier work
A2780, M248, MES-SA, MX2 = assay: chromatin folding by PWS microscopy in cell line models; format: cell-based; settings: for chromatin folding (structural alterations): FIG. 5A, five cell line models
From the text: FIG. 5A is a graph showing structural alterations due to taxol treatment (Paclitaxel or Docetaxel) in contrast to digoxin for five cell line models (A2780, M248, MES-SA, MX2). Chemotherapeutic intervention increases while CPT agent (digoxin) decreases chromatin folding. Error bars: S.E. of 5 different cell lines. FIGS. 5B-5C are diagrams showing intercellular (FIG. 5B) and intra-network (FIG. 5C) transcriptional heterogeneity increases in cells treated with chemotherapy and decreases in cells treated with CPTs for critical biological processes: (1) cell cycle, (2) apoptosis, (3) proliferation, (4) transcription, (5) signaling, (6) differentiation, (7) glycolysis, (8) translation, (9) ion transport, (10) metabolism, (11) oxidation/reduction, (12) stress response, and (13) nucleosome assembly. Circle size: the number of genes within a network/process. Color: % change in transcription heterogeneity compared to controls. […] Digoxin reduces chromatin heterogeneity. Arrow: nuclei.
Chromatin is a complex arrangement of DNA wrapped around structural and regulatory proteins that control the expression of genes directly involved in cellular function and phenotype. Local physicochemical changes broadly affect chromatin folding and alter gene expression patterns across the genome. In a non-limiting example, decoding the chromatin folding code and understanding how different agents affect folding dynamics at the nanoscale can be helpful to develop new diagnostic tools. The resolution of optical microscopy is limited by diffraction to >200 nm. Recently, a major breakthrough has been made in the emergence of super-resolution fluorescence microscopy that enabled development of a suite of label-free nanoscale imaging technologies including Partial Wave Spectroscopic (PWS) Microscopy (see, for example, FIG. 4). The main principle of PWS is a previously overlooked phenomenon that while sub-diffractional structures are not resolvable, they are still detectable through the analysis of interference of elastically scattered light. PWS can measure the statistics of macromolecular density distribution within live or fixed cells with sensitivity in the 20-200 nm length scales, which is ideally suited for the characterization of chromatin topology. It was by using PWS (and corroborated by electron microscopy) that heterogenization of chromatin folding was discovered as one of the earliest events in carcinogenesis across multiple cancer types. Consequently, PWS was turned into a robust diagnostics technology (nanocytology) and is now in clinical trials for early screening or prognostication of lung, colon, and prostate cancers.

[6] = test system: PY230 murine mammary tumor cells; assay: proliferation of PY230 cells under doxorubicin; format: cell-based; settings: DXR 250 nM, within a few hours from application
Protocol: (§4) FIGS. 2A-2B show heightened levels of nuclear ROS in persister chemotherapy-resistance cancer cells. FIG. 2A is a collection of images and graphs showing experimental data generated using NLS-Orp1roGFP2 biosensor to measure ROS in the nucleus of breast cancer cell lines. PY230 murine mammary tumor cells expressing NLS-Orp1roGFP2 were treated with doxorubicin (DXR, 250 nM) for the indicated amounts of times in plots of proliferation as well as fluorescence ratios indicate that persister cells have high levels of nuclear ROS and proliferate in the presence of chemotherapy mimicking clinical chemotherapy resistance where most cells initially die leaving persister ones that rapidly proliferate unabated by treatment. Induction of NLS-catalase, that removes ROS from the nucleus, resensitized persister cells to the killing effects of DXR. FIG. 2B is a collection of images showing mammary xenografts of luciferase-labeled transformed MCF10A constitutively expressing NLS-catalase under an inducible promoter rapidly grow and metastasize within 3 months of implantation. […]
Nuclear ROS are sufficient and required to activate EMT and metastasis of breast cancer cells. ROS levels were measured in the nuclei of different breast cancer cell lines displaying vastly different tumorigenicity and metastatic potential using novel NLS-Orp1roGFP2 biosensors. […]

[7] = test system: v-Src transformed luciferase-expressing MCF10A xenografts; assay: mammary xenograft of v-Src transformed luciferase-expressing MCF10A; format: in vivo, NOD/SCID mice; settings: doxorubicin combined with NLS-catalase, 2 months of combined therapies, assessed at month 7
Protocol: as §4, with “DXR.” for “DXR. FIG. 2B is a collection of images showing mammary xenografts of luciferase-labeled transformed MCF10A constitutively expressing NLS-catalase under an inducible promoter rapidly grow and metastasize within 3 months of implantation.”
Results in FIG. 2A, closely recapitulate the reality of most clinical cancer treatments that are effective at first eliminating the bulk tumor but that are become ineffective when the disease recur. […] Three months after implantation, metastases were clearly detected by luciferin-induced bioluminescence in the chest and head of most mice FIG. 2B. […]

C[C@@H](N)C(=O)O [D-Ala]
EMT markers (MCF10A/NLS-DAO cells): increased

O=[N+]([O-])c1ccc(O)c([N+](=O)[O-])c1 [DNP, 2,4-dinitrophenol]
levels of nuclear ROS (ox/red Orp1roGFP2 ratio) (BT20 NLS Orp roGFP cells): strongly suppresses; also recorded: clear concentration dependence of nROS reduction
levels of nuclear ROS (ox/red Orp1roGFP2 ratio) [1]: strongly suppresses; also recorded: clear concentration dependence of nROS reduction
Safety Index (28-day toxicity studies; 28-day toxicity studies): ≥ 10 ×
toxicity (28-day toxicity studies; 28-day): not toxic
inhibition of ion channels (ion channels): no inhibition
inhibition of CYP (CYP): no inhibition
inhibition, Caco-2 (Caco-2): no inhibition
distribution [2]: good
oral bioavailability [2]: orally bioavailable
half-life ([2]; rat, plasma): ~6 h
safety [3]: safe
reduction of cerebral infarct volume [4]: 40%
lifespan versus untreated mice (wildtype mice): living longer than untreated mice
cognition and learning [5]: improve

CC(=O)O[C@@]12CO[C@@H]1C[C@H](O)[C@@]1(C)C(=O)[C@H](O)C3=C(C)[C@@H](OC(=O)[C@H](O)[C@@H](NC(=O)OC(C)(C)C)c4ccccc4)C[C@@](O)([C@@H](OC(=O)c4ccccc4)[C@H]21)C3(C)C [Docetaxel]
chromatin folding (structural alterations) (A2780, M248, MES-SA, MX2): increases

CC(=O)O[C@H]1C(=O)[C@@]2(C)[C@H]([C@H](OC(=O)c3ccccc3)[C@]3(O)C[C@H](OC(=O)[C@H](O)[C@@H](NC(=O)c4ccccc4)c4ccccc4)C(C)=C1C3(C)C)[C@]1(OC(C)=O)CO[C@@H]1C[C@@H]2O [Paclitaxel]
chromatin folding (structural alterations) (A2780, M248, MES-SA, MX2): increases

C[C@H]1O[C@@H](O[C@H]2[C@@H](O)C[C@H](O[C@H]3[C@@H](O)C[C@H](O[C@H]4CC[C@@]5(C)[C@H](CC[C@@H]6[C@@H]5C[C@@H](O)[C@]5(C)[C@@H](C7=CC(=O)OC7)CC[C@]65O)C4)O[C@@H]3C)O[C@@H]2C)C[C@H](O)[C@@H]1O [digoxin]
chromatin folding (structural alterations) (A2780, M248, MES-SA, MX2): decreases
chromatin heterogeneity, live cell PWS (A2780, M248, MES-SA, MX2; FIG. 5D): reduces

COc1cccc2c1C(=O)c1c(O)c3c(c(O)c1C2=O)C[C@@](O)(C(=O)CO)C[C@@H]3O[C@H]1C[C@H](N)[C@H](O)[C@H](C)O1 [doxorubicin]
effect on cell population (proliferation) [6]: eliminated the bulk of cells
metastatic disease and primary tumor (bioluminescence) [7]: complete remission of metastatic disease as well as significant regression of primary tumor
